Common to all, as to experiment: relative viability (nuclei count vs DMSO), 5 days (fraction); higher = more cells survive
Compound in assay [1]: CC1CC(=O)N(C2=CN=C(N=C2N1C3CCCC3)NC4=C(C=C(C=C4)C(=O)NC5CCN(CC5)C)OC)C [NPK76-II-72-1] + CS(=O)(=O)N1CCN(Cc2cc3nc(-c4cccc5[nH]ncc45)nc(N4CCOCC4)c3s2)CC1 [Pictilisib] (partner 1 µM)
A digest of the protocol: (§1)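 Relative viability equals treated-well nuclei counts divided by vehicle-well nuclei counts. Counts came from 4× images of lung cancer cell lines grown in 1536-well plates for 5 days after pin-tool dosing on the day after seeding. Dosing used one drug alone or a fixed anchor-drug dose plus five library-drug doses (not always all listed) in √10 steps, and values are medians of duplicate plates.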

Compound in assay [2]: CC[C@@H]1C(=O)N(C)c2cnc(Nc3ccc(C(=O)NC4CCN(C)CC4)cc3OC)nc2N1C1CCCC1 [BI-2536] + Nc1nc2[nH]cc(CCc3ccc(C(=O)N[C@@H](CCC(=O)O)C(=O)O)cc3)c2c(=O)[nH]1 [Pemetrexed] (partner 0.2 µM)
The gist of the method: as §1

Compound in assay [3]: CC1CC(=O)N(C2=CN=C(N=C2N1C3CCCC3)NC4=C(C=C(C=C4)C(=O)NC5CCN(CC5)C)OC)C [NPK76-II-72-1] + N=C(N)NC(=N)NCCc1ccccc1 [Phenformin] (partner 250 µM)
The gist of the method:
as §1

Compound in assay [4]: CC[C@@H]1C(=O)N(C)c2cnc(Nc3ccc(C(=O)NC4CCN(C)CC4)cc3OC)nc2N1C1CCCC1 [BI-2536] + COc1cc2c(Oc3ccc(NC(=O)C4(C(=O)Nc5ccc(F)cc5)CC4)cc3F)ccnc2cc1OCCCN1CCOCC1 [Foretinib] (partner 0.25 µM)
A digest of the protocol: as §1

Among the data in the supplement of paper PMC10307832 are relative viability values, retold here.

Consider UMC-11, for which the relative viability stood at 0.75 in assay [1] (first compound 0.01 µM); 0.707 in assay [1] (first compound 0.03162 µM); 0.881 in assay [1] (first compound 0.1 µM); 0.806 in assay [1] (first compound 0.3162 µM); 0.778 in assay [1] (first compound 1 µM); 0.8 in assay [2] (first compound 0.01 µM). The relative viability came to 0.57 in assay [2] (first compound 0.03162 µM); 0.242 in assay [2] (first compound 0.1 µM); 0.194 in assay [2] (first compound 0.3162 µM); 0.184 in assay [2] (first compound 1 µM); 0.318 in assay [3] (first compound 0.01 µM); 0.32 in assay [3] (first compound 0.03162 µM). In addition, the relative viability came out at 0.346 in assay [3] (first compound 0.1 µM); 0.344 in assay [3] (first compound 1 µM); 0.927 in assay [4] (first compound 0.01 µM); 0.661 in assay [4] (first compound 0.03162 µM); 0.174 in assay [4] (first compound 0.1 µM); 0.19 in assay [4] (first compound 0.3162 µM). Also, in assay [4] (first compound 1 µM), the relative viability turned out to be 0.191.
